This is an account of results in US9549917B2, “Heterocyclic-substituted benzofuran derivatives and methods of use thereof for the treatment of viral diseases” (priority 2011, dated 2017).

SMILES strings stand for the structures.

One experiment relates to HCV replicon genotype 1a. The experiment is described as follows: HCV replicon assay, genotype 1a (cell ELISA for NS3/4A). It counts as cell-based. The settings on record: Hepatitis C virus, 96 h, read-out: 1a IC50 (nM). The protocol: (§1) Measurement of inhibition by compounds was performed using the HCV replicon system. Several different replicons encoding different HCV genotypes or mutations were used. In addition, potency measurements were made using different formats of the replicon assay, including different ways of measurements and different plating formats. See Jan M. Vrolijk et al., A replicons-based bioassay for the measurement of interferons in patients with chronic hepatitis C, 110 J. V[…] 201 (2003); Steven S. Carroll et al., Inhibition of Hepatitis C Virus RNA Replication by 2′-Modified Nucleoside Analogs, 278(14) J. BIOLOGICAL CHEMISTRY 11979 (2003). However, the underlying principles are common to all of these determinations, and are outlined below.
(§2) Stable neomycin phosphotransferase encoding replicons-harboring cell lines were used, so all cell lines were maintained under G418 selection prior to the assay. Potency was determined using a cell ELISA assay with an antibody to the replicons encoded NS3/4a protease. See Caterina Trozzi et al., In Vitro Selection and Characterization of Hepatitis C Virus Serine Protease Variants Resistant to an Active-Site Peptide Inhibitor, 77(6) J. Virol. 3669 (2003). To initiate an assay, replicon cells were plated in the presence of a dilution series of test compound in the absence of G418. Typically, the assays were performed in a 96-well plate formate for manual operation, or a 384-well plate format for automated assay. Replicon cells and compound were incubated for 96 hours. At the end of the assay, cells were washed free of media and compound, and the cells were then lysed. RNA was quantified indirectly through detection of replicon-encoded NS3/4A protein levels, through an ELISA-based assay with an antibody specific for NS3/4A. IC50 determinations were calculated as a percentage of a DMSO control by fitting the data to a four-parameter fit function and the data obtained is provided in the table below.
(§3) Data for selected compounds of the present invention was obtained for genotypes 1a and 1b using this method and is provided in the table below: […]
(In antiviral work, replicon cells carry a viral genome segment that copies itself.)

Another experiment concerns HCV replicon genotype 1b. Briefly: HCV replicon assay, genotype 1b (cell ELISA for NS3/4A). In kind it is cell-based. The settings on record: Hepatitis C virus, 96 h, read-out: 1b IC50 (nM). The protocol: as §1, §2, §3

The term IC50 denotes the concentration that inhibits the measured activity by half. With `CNC(=O)c1c(-c2ccc(F)cc2)oc2cc(N(C)S(C)(=O)=O)c(-c3cnnc(N4Cc5c(F)cccc5C4=O)c3)cc12` [Compound 281], the IC50 in the experiment on HCV replicon genotype 1a turned out to be 22.3 nM; in the experiment on HCV replicon genotype 1b, 4.8 nM.

Turning to `CNC(=O)c1c(-c2ccc(F)cc2)oc2cc(N(C)S(C)(=O)=O)c(-c3cnnc(N4Cc5cccc(F)c5C4)c3)cc12` [Compound 280], the IC50 with HCV replicon genotype 1a came out at 1.2 nM; with HCV replicon genotype 1b, 1.4 nM.

Take `CNC(=O)c1c(-c2ccc(F)cc2)oc2cc(N(C)S(C)(=O)=O)c(-c3cc(-c4cc5ccccc5[nH]4)c(OC)nn3)cc12` [Compound 209]: the IC50 came to 8.9 nM with HCV replicon genotype 1a and 4.7 nM with HCV replicon genotype 1b.

Turning to `CNC(=O)c1c(-c2ccc(F)cc2)oc2cc(N(C)S(C)(=O)=O)c(-c3cc(-c4cc5c(F)cccc5[nH]4)ncc3OC)cc12` [Compound 293], the IC50 in the experiment on HCV replicon genotype 1a was determined as 131 nM; in the experiment on HCV replicon genotype 1b it was 41 nM.

In the case of `CNC(=O)c1c(-c2ccc(F)cc2)oc2cc(N(C)S(C)(=O)=O)c(-c3cc(-c4cc5c(C#N)cccc5[nH]4)nnc3C)cc12` [Compound 266], the results for the IC50 in the experiment on HCV replicon genotype 1a and in the experiment on HCV replicon genotype 1b were 3.2 nM and 3 nM, respectively.

On to `CNC(=O)c1c(-c2ccc(F)cc2)oc2cc(N(C)S(C)(=O)=O)c(-c3nnc(-c4cc5c(F)cccc5[nH]4)o3)cc12` [Compound 256, 5-(5-(4-fluoro-1H-indol-2-yl)-1,3,4-oxadiazol-2-yl)-2-(4-fluorophenyl)-N-methyl-6-(N-methylmethylsulfonamido)benzofuran-3-carboxamide], for which the IC50 in the experiment on HCV replicon genotype 1a is 0.4 nM; in the experiment with HCV replicon genotype 1b it was 0.7 nM.

With `CNC(=O)c1c(-c2ccc(F)cc2)oc2ccc(-c3cc(-c4cc5c(F)cccc5[nH]4)nnc3C)cc12` [Compound 270], the IC50 is 42 nM in the experiment with HCV replicon genotype 1a and 36 nM with HCV replicon genotype 1b.

For the compound `CNC(=O)c1c(-c2ccc(F)cc2)oc2cc(N(C)S(C)(=O)=O)c(-c3cncc(-c4nc5ccccc5s4)c3)cc12` [Compound 62], the IC50 in the experiment with HCV replicon genotype 1a amounted to 2 nM; in the experiment with HCV replicon genotype 1b, 1.2 nM.

As for `CNC(=O)c1c(-c2ccc(F)cc2)oc2cc(N(C)S(C)(=O)=O)c(-c3cc(N4Cc5cccc(F)c5C4)ncc3Cl)cc12` [Compound 291], the IC50 worked out at 4.8 nM in the experiment with HCV replicon genotype 1a and 8 nM with HCV replicon genotype 1b.

Take `CNC(=O)c1c(-c2ccc(F)cc2)oc2cc(N(C)S(C)(=O)=O)c(-c3cncc(-c4nc5c(s4)C4CCC5C4)c3)cc12` (stereo not shown) [Compound 182]: the IC50 in the experiment with HCV replicon genotype 1a was determined as 4.4 nM; in the experiment with HCV replicon genotype 1b it was 4.3 nM.

Turning to `CNC(=O)c1c(-c2ccc(F)cc2)oc2cc(N(C)S(C)(=O)=O)c(-c3cc(-c4nc5c(F)cccc5o4)c(F)cn3)cc12` [Compound 13], the IC50 with HCV replicon genotype 1a came out at 0.7 nM; in the experiment on HCV replicon genotype 1b it was 1.4 nM.

On to `CNC(=O)c1c(-c2ccc(F)cc2)oc2cc(N(C)S(C)(=O)=O)c(-c3cncc(-c4cc5ccncc5s4)c3)cc12` [Compound 179], for which the values for the IC50 in the experiment with HCV replicon genotype 1a and in the experiment with HCV replicon genotype 1b were 8.2 nM and 5.1 nM, respectively.

For `CNC(=O)c1c(-c2ccc(F)cc2)oc2cc(N(C)S(C)(=O)=O)c(-c3ccc(OC)c(-c4cc5cccc(C#N)c5[nH]4)n3)cc12` [Compound 208], the IC50 came out at 27 nM in the experiment with HCV replicon genotype 1a and 7.2 nM in the experiment with HCV replicon genotype 1b.

Turning to `CNC(=O)c1c(-c2ccc(F)cc2)oc2cc(N(C)S(C)(=O)=O)c(-c3cnnc(-c4cc5c(F)cccc5[nH]4)c3)cc12` [Compound 259], the IC50 in the experiment with HCV replicon genotype 1a was 1.1 nM; with HCV replicon genotype 1b it was 2.6 nM.

On to `CNC(=O)c1c(-c2ccc(F)cc2)oc2cc(N(C)S(C)(=O)=O)c(-c3cnnc(-c4cc5c(F)cccc5n4CCOC)c3)cc12` [Compound 279], for which the IC50 in the experiment with HCV replicon genotype 1a turned out to be 2.5 nM; with HCV replicon genotype 1b, 3.2 nM.

For `CNC(=O)c1c(-c2ccc(F)cc2)oc2cc(N(C)S(C)(=O)=O)c(-c3ccnc(-c4cc5ccccc5[nH]4)c3)cc12` [Compound 109], the figures for the IC50 with HCV replicon genotype 1a and with HCV replicon genotype 1b were 0.4 nM and 1 nM, respectively.

For the compound `CNC(=O)c1c(-c2ccc(F)cc2)oc2cc(N(C)S(C)(=O)=O)c(-c3ncc(OC)c(-c4cc5c(C#N)cccc5[nH]4)n3)cc12` [Compound 214], the IC50 in the experiment with HCV replicon genotype 1a came to 33 nM; in the experiment on HCV replicon genotype 1b, 9.9 nM.
